Measurements: article PMC11606603, “The membrane domains of mammalian adenylyl cyclases are lipid receptors” (eLife, 2024)
Where “and” joins values, the source holds several entries; their conditions need not be identical. Identical values can stand only once.

How the values were obtained:
HEK-mAC1 = target: T1, HEK-mAC1 (Homo sapiens, UniProt Q08828); assay: cAMP accumulation assay, isoproterenol-stimulated HEK-mAC1 cells; type: cell-based; conditions: for cAMP level (%); 100%= 10µM Isoproterenol stimulation: single experiments
T1 construct: Human mAC genes were from GenScript and fitted with a C-terminal FLAG-tag; FLAG (C); expressed in transfected cells; host or cells: HEK293, permanently transfected

HEK-mAC4 = target: T2, HEK-mAC4 (Homo sapiens, UniProt Q8NFM4); assay: cAMP accumulation assay, isoproterenol-stimulated HEK-mAC4 cells; type: cell-based; conditions: for cAMP level (%); 100%= 10µM Isoproterenol stimulation: single experiments
T2 construct: Human mAC genes were from GenScript and fitted with a C-terminal FLAG-tag; FLAG (C); expressed in transfected cells; host or cells: HEK293, permanently transfected
T2 sequence (Q8NFM4 1-1077): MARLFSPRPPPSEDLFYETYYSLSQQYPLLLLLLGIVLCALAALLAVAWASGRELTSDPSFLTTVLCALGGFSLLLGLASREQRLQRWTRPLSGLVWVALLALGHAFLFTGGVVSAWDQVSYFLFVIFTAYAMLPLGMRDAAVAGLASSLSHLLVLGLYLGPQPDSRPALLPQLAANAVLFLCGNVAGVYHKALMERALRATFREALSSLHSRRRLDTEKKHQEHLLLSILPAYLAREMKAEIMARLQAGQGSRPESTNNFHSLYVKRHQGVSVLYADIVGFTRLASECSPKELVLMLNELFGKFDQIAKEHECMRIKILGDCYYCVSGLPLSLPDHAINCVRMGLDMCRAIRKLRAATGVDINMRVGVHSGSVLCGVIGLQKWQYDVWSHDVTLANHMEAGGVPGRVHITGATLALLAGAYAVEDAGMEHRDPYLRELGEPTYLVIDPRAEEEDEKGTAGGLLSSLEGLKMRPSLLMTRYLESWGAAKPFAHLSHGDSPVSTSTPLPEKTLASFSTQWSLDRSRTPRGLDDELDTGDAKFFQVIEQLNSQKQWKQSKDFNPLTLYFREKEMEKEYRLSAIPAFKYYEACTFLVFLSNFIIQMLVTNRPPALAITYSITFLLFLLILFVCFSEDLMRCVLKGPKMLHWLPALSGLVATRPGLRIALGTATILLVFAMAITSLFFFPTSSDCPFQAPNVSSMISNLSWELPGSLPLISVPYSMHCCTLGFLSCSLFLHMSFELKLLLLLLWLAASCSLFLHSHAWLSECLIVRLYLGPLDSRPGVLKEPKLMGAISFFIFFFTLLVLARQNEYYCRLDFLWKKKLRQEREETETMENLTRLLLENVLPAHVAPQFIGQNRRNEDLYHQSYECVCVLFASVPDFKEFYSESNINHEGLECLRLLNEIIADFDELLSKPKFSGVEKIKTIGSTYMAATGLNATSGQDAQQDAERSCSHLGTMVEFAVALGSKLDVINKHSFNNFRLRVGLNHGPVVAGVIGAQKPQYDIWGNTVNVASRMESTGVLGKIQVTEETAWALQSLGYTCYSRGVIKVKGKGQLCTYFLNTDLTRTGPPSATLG

mAC7 = target: T3, mAC7 (Homo sapiens, UniProt P51828); assay: AC assay, Gsα-stimulated mAC7 in membranes from transfected HEK293 cells; type: biochemical
T3 construct: Human mAC genes were from GenScript and fitted with a C-terminal FLAG-tag; FLAG (C); made in house; host or cells: HEK293, permanently transfected; membrane preparation
How it was run: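 EC50 and IC50 values come from cAMP production, read with a Cisbio cAMP kit and converted via a standard curve. Assay mix held 1 mM ATP, 2 mM MgCl2, 3 mM creatine phosphate and 60 μg/ml creatine kinase in 50 mM MOPS pH 7.5, using transfected HEK293 membranes.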

[1] = test system: mAC activity in brain cortical membranes; assay: AC assay, Gsα-stimulated brain cortical membranes; type: biochemical, mouse
Description: hAC sequences were from NCBI were: ADCY1: NM_021116.3; ADCY2: NM_020546.2; ADCY3: NM_004036.4; ADCY4: NM_001198568.2; ADCY5: NM_183357.2; ADCY6: NM_015270.4; ADCY7: NM_001114.4; ADCY8: NM_001115.2; ADCY9: NM_001116.3. Human mAC genes were from GenScript and fitted with a C-terminal FLAG-tag. […] The gene was synthesized by GenScript. HEK293 cells were maintained in Dulbeccos Modified Eagle Medium (DMEM) with 10% fetal bovine serum at 37°C and 5% CO2. Transfection with AC plasmids was with PolyJet (SignaGen, Frederick, MD, USA). Permanent cell lines were generated by selection for 7 days with 600 µg/ml G418 and maintained with 300 µg/ml For membrane preparation, cells were tyrpsinized, collected by centrifugation (3000 × g, 5 min) and lysed and homogenized in 20 mM HEPES, pH 7.5, 1 mM Ethylenediaminetetraacetic acid (EDTA), 2 mM MgCl2, 1 mM Dithiothreitol (DTT), one tablet of cOmplete, EDTA-free (per 50 ml) and 250 mM sucrose by 20 strokes in a potter homogenizer on ice. Debris was removed (5 min at 1000 × g, 0°C), membranes were collected at 100,000 × g, 60 min at 0°C, suspended and stored at −80°C in 20 mM MOPS, pH 7.5, 0.5 mM EDTA, 2 mM MgCl2. […] Three cerebral cortices were dissected and homogenized in 4.5 ml cold 48 mM Tris–HCl, pH 7.4, 12 mM MgC1_2, and 0.1 mM Ethylene glycol-bis(β-aminoethyl ether)-N,N,N′,N′-tetraacetic acid (EGTA) with a Polytron hand disperser (Kinematica AG, Switzerland). […] The pellet was washed once with 5 ml 1 mM KHCO3. The final suspension in 2 ml 1 mM KHCO3 was stored in aliquots at −80°C.
In a volume of 10 μl, AC activities were measured using 1 mM ATP, 2 mM MgCl2, 3 mM creatine phosphate, 60 μg/ml creatine kinase, and 50 mM MOPS pH 7.5. The cAMP assay kit from Cisbio (Codolet, France) was used for detection according to the supplier’s instructions. For each assay, a cAMP standard curve was established. EC50 and IC50 values were calculated by GraphPad Prism version 8.4.3 for Windows, GraphPad Software, San Diego, CA, USA, https://www.graphpad.com .

T3 sequence (P51828 whole entry): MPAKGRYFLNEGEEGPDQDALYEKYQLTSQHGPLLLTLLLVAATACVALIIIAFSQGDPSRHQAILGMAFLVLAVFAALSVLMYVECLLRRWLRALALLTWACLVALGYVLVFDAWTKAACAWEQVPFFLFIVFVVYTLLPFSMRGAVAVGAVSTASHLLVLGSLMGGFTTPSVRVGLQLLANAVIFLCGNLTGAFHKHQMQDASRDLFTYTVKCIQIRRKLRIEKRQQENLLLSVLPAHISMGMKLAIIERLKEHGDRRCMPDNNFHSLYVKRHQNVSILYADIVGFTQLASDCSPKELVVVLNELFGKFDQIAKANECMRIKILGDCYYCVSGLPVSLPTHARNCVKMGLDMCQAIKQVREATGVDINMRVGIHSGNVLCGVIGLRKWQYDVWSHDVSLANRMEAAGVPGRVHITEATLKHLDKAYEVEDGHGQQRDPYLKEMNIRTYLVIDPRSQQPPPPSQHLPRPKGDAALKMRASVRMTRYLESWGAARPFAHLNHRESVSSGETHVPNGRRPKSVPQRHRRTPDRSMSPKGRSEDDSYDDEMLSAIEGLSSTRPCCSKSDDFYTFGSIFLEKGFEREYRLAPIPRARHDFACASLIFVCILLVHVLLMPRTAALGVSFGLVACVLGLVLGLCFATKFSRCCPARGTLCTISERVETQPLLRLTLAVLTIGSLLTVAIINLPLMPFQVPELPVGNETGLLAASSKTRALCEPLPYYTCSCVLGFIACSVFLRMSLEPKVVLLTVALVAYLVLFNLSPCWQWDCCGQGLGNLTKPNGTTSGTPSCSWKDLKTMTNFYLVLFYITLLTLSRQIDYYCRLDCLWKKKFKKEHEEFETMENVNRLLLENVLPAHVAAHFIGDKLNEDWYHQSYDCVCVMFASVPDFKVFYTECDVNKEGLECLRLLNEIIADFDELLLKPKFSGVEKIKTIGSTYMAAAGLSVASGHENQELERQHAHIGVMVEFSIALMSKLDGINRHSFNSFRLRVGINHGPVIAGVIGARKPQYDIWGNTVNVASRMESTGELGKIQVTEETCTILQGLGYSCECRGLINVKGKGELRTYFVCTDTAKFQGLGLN
T3 sequence (P63092 2-394 Q227L partner): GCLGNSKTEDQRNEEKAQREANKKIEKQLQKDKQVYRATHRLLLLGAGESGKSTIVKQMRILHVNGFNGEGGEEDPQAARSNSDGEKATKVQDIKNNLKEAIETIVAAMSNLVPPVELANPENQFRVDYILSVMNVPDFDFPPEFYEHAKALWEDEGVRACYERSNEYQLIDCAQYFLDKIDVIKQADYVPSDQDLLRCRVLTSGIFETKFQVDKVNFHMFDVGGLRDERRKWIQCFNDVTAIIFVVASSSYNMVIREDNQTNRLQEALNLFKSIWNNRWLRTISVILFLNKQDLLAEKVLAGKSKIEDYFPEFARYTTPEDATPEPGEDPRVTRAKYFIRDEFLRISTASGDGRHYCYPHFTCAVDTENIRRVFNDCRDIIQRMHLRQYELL
T1 sequence (Q08828 whole entry): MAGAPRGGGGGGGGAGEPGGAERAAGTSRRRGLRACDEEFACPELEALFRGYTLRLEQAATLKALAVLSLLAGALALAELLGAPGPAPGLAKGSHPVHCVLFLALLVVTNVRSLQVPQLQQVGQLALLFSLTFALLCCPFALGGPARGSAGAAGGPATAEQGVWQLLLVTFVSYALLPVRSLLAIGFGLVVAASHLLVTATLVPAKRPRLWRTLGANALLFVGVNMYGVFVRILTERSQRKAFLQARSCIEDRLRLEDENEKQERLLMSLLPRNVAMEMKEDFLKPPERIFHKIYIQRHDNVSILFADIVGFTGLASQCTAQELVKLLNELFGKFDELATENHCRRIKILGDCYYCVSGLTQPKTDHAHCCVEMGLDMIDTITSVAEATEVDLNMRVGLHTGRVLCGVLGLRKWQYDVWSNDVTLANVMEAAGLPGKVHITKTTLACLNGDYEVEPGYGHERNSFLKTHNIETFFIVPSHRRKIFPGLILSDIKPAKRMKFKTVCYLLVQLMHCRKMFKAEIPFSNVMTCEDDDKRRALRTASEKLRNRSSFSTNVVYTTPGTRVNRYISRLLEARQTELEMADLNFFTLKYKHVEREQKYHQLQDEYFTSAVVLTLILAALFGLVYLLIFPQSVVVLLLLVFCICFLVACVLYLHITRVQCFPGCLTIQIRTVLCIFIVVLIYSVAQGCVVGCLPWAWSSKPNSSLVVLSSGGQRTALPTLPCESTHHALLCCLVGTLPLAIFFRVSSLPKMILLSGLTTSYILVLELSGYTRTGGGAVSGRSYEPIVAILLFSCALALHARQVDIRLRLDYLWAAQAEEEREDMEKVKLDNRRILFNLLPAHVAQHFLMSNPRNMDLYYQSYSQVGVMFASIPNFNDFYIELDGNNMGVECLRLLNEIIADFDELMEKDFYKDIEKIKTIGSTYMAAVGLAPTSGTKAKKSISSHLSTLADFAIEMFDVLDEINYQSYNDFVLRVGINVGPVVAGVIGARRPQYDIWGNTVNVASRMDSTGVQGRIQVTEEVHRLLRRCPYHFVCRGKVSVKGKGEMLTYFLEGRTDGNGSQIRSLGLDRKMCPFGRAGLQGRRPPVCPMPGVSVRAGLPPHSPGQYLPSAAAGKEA

SMILES: CCCCC/C=C\C/C=C\C/C=C\C/C=C\CCCC(=O)O [Arachidonic acid, Arachidonic ((5Z,8Z,11Z,14Z)-eicosatetraenoic) acid]
- IC50 (HEK-mAC1; 10 µM isoproterenol, 0.5 mM IBMX): 0.00025 µM
- cAMP level (%); 100%= 10µM Isoproterenol stimulation (HEK-mAC1; HEK-mAC1, 1e-5 µM): 113% and 69%
- cAMP level (%); 100%= 10µM Isoproterenol stimulation (HEK-mAC1; HEK-mAC1, 0.0001 µM): 98% and 73%
- cAMP level (%); 100%= 10µM Isoproterenol stimulation (HEK-mAC1; HEK-mAC1, 0.001 µM): 93% and 69%
- cAMP level (%); 100%= 10µM Isoproterenol stimulation (HEK-mAC1; HEK-mAC1, 0.003 µM): 61%
- cAMP level (%); 100%= 10µM Isoproterenol stimulation (HEK-mAC1; HEK-mAC1, 0.006 µM): 59%
- cAMP level (%); 100%= 10µM Isoproterenol stimulation (HEK-mAC1; HEK-mAC1, 0.01 µM): 62% and 55% and 52% and 91% and 64%
- cAMP level (%); 100%= 10µM Isoproterenol stimulation (HEK-mAC1; HEK-mAC1, 0.1 µM): 77% and 55% and 49% and 97% and 63%
- cAMP level (%); 100%= 10µM Isoproterenol stimulation (HEK-mAC1; HEK-mAC1, 0.6 µM): 47%
- cAMP level (%); 100%= 10µM Isoproterenol stimulation (HEK-mAC1; HEK-mAC1, 60 µM): 72% and 67% and 51% and 53% and 65%
- cAMP level (%); 100%= 10µM Isoproterenol stimulation (HEK-mAC1; HEK-mAC1, 100 µM): 76% and 47% and 57% and 42% and 44% and 60% and 81%
- Effect on isoproterenol-stimulated cAMP formation in HEK-mAC4 (HEK-mAC4; 10 µM isoproterenol, in words): not attenuated
- cAMP level (%); 100%= 10µM Isoproterenol stimulation (HEK-mAC4; HEK-mAC4, 1e-5 µM): 136%
- cAMP level (%); 100%= 10µM Isoproterenol stimulation (HEK-mAC4; HEK-mAC4, 0.0001 µM): 111%
- cAMP level (%); 100%= 10µM Isoproterenol stimulation (HEK-mAC4; HEK-mAC4, 0.001 µM): 114%
- cAMP level (%); 100%= 10µM Isoproterenol stimulation (HEK-mAC4; HEK-mAC4, 0.01 µM): 81% and 101% and 120% and 122%
- cAMP level (%); 100%= 10µM Isoproterenol stimulation (HEK-mAC4; HEK-mAC4, 0.03 µM): 124%
- cAMP level (%); 100%= 10µM Isoproterenol stimulation (HEK-mAC4; HEK-mAC4, 0.06 µM): 102%
- cAMP level (%); 100%= 10µM Isoproterenol stimulation (HEK-mAC4; HEK-mAC4, 0.1 µM): 84% and 94% and 116% and 103%
- cAMP level (%); 100%= 10µM Isoproterenol stimulation (HEK-mAC4; HEK-mAC4, 0.6 µM): 108%
- cAMP level (%); 100%= 10µM Isoproterenol stimulation (HEK-mAC4; HEK-mAC4, 1 µM): 106% and 107% and 121% and 127% and 99% and 109% and 161% and 110%
- cAMP level (%); 100%= 10µM Isoproterenol stimulation (HEK-mAC4; HEK-mAC4, 3 µM): 93% and 101% and 129% and 97% and 124% and 139%
- cAMP level (%); 100%= 10µM Isoproterenol stimulation (HEK-mAC4; HEK-mAC4, 10 µM): 112% and 82% and 111% and 109% and 125% and 147%
- cAMP level (%); 100%= 10µM Isoproterenol stimulation (HEK-mAC4; HEK-mAC4, 30 µM): 103% and 112% and 97% and 105% and 131%
- cAMP level (%); 100%= 10µM Isoproterenol stimulation (HEK-mAC4; HEK-mAC4, 60 µM): 95% and 112% and 121% and 114% and 128%
- cAMP level (%); 100%= 10µM Isoproterenol stimulation (HEK-mAC4; HEK-mAC4, 100 µM): 99% and 78% and 112% and 85% and 100% and 146% and 145%

SMILES: CCCCCCCC/C=C\CCCCCCCC(=O)O [Oleic acid, Oleic ((9Z)-octadecenoic) acid]
- Effect of lipid on 300 nM Gsα-stimulated mAC7 (mAC7; 20 µM, in words): significantly enhanced
- mAC7 activity [%] (100% = 300nM Gsα stimulation) (mAC7; Figure 5 B, oleic acid 0.3 µM): 100%
- EC50 (mAC7; enhancement of 300 nM Gsα-stimulated activity): 6.7 µM
- enhancement of Gsα-stimulated cAMP formation in cortical membranes ([1]; 20 µM oleic acid): 1.5 fold
- mAC activity [%] (100% = 300nM Gsα stimulation), mouse brain cortex ([1]; Oleic acid 1 µM): 78% and 93% and 114%
- mAC activity [%] (100% = 300nM Gsα stimulation), mouse brain cortex ([1]; Oleic acid 3 µM): 154%
- mAC activity [%] (100% = 300nM Gsα stimulation), mouse brain cortex ([1]; Oleic acid 6 µM): 153% and 144%
- mAC activity [%] (100% = 300nM Gsα stimulation), mouse brain cortex ([1]; Oleic acid 8 µM): 173% and 146% and 174%
- mAC activity [%] (100% = 300nM Gsα stimulation), mouse brain cortex ([1]; Oleic acid 10 µM): 142% and 181%
- mAC activity [%] (100% = 300nM Gsα stimulation), mouse brain cortex ([1]; Oleic acid 20 µM): 187% and 161% and 140%
- EC50 ([1]; enhancement of 300 nM Gsα-stimulated cAMP formation): 5 µM
